Test results from patent US6943190B2, “Method of using pyruvate and/or its derivatives for the treatment of cytokine-mediated inflammatory conditions” (University of Pittsburgh-of the Commonwealth System of …, priority 2001, dated 2005).

Tests used:
Caco-2 human enterocytes = assay: Cytomix-induced hyperpermeability of Caco-2 monolayers (FD4 clearance); format: cell-based; settings: 48 h incubation with cytomix (IFN-γ, IL-1β, TNF-α); both of the highest concentrations; P<0.001
Method: To test for the effect of ethyl pyruvate on a stabilizing calcium salt solution (REPS) in a cytokine-induced intestinal epithelial hyperpermeability condition, an in vitro model of intestinal epithelial injury due to inflammation, such as might occur in cases of inflammatory bowel disease (i.e., Crohn's disease or ulcerative colitis) was used.
Exemplary materials and methods include the following, while minor modifications can be made: Caco-2 human enterocytes (10^5 cells/well) were plated on permeable filters in 12-well Transwell bicameral chambers (COSTAR, Corning, N.Y.) and fed biweekly. Permeability studies were carried out using confluent monolayers between 21-28 d after seeding. The permeability probe was FITC-labeled dextran (4400 Da; FD4). A sterile stock solution of FD4 (25 mg/ml) was prepared by dissolving the compound in HEPES-buffered DMEM complete medium (pH 6.8) and passing it through a filter ([…] pore size). For permeability studies, the medium was aspirated from the apical and basolateral sides of the Transwell chambers. FD4 solution (200 μl) was added to the apical compartments. […] (Menconi et al., Am. J. Physiol. (1997) 272:G1007-G1021.) The permeability of monolayers was expressed as a clearance (C), which was calculated as previously described. […]

[1] = tested on: lethal endotoxemia (E. coli lipopolysaccharide); assay: Lethal endotoxemia (LPS) in mice: survival and morbidity; format: in vivo, Balb/C mice; settings: for survival: P<0.005
Method: (§1) Animal Experiments. Male 6-8 week old Balb/C mice (20-25 g) were purchased from Harlen Sprague-Dawley (Indianapolis, Ind.) and allowed to acclimate for 7 days housed at 25° C. on a 12 h light/dark cycle. Animals were randomly grouped (10 mice per group) and assigned to a specific experiment. All animal experiments were performed in accordance with the National Institutes of Health Guidelines under protocols approved by the Institutional Animal Care and Use Committee of North Shore University Hospital and New York University Medical School.
Endotoxin shock. Mice were injected with endotoxin (Escherichia coli lipopolysaccharide, LPS 0111:B4; Sigma Chemical Co, St. Louis, Mo.) that was dissolved in sterile pyrogen-free saline at stock concentrations of 10 mg/ml. LPS solutions were sonicated for 20 min immediately prior to use for each experiment. Mice received an LD75 dose of LPS (5 mg/kg, i.p.). Blood was collected at different times after LPS administration, allowed to clot for 2 h at room temperature, then centrifuged for 20 min at 1,500 g. Serum samples were stored at […] prior to analysis. Mortality was recorded for up to 3 weeks after injection to ensure that no additional late deaths occurred.
Ethyl Pyruvate Solution: Ethyl pyruvate was prepared in solution with sodium (130 mM), potassium (4 mM), calcium (2.7 mM), chloride (130 mM), and ethyl pyruvate (28 mM); pH 7.0). For injections in mice solutions were diluted so that each injection volume was 0.4 ml per dose.
The initial evaluation of ethyl pyruvate (EP) was conducted as a therapeutic solution in lethal systemic inflammation in a standard model of murine endotoxemia. Balb/c mice received a single dose of ethyl pyruvate (40 mg ethyl pyruvate/kg mouse) 30 minutes before the onset of lethal endotoxemia (E. coli lipopolysaccharide, LPS, 5 mg LPS/kg, i.p.). Ethyl pyruvate pretreatment protected BALB/c mice from lethal endotoxemia (ethyl pyruvate survival=20/20 versus vehicle control survival=3/20; P<0.005) (FIG. 3A).
The therapeutic efficacy of the delayed administration of ethyl pyruvate after the onset of endotoxemia was assessed. Ethyl pyruvate dosing in endotoxemic mice was initiated 4 hours after the onset of endotoxemia, when clinical signs were already evident, including diarrhea, piloerection, and depressed spontaneous activity (FIG. 4A).

[2] = tested on: lethal sepsis caused by peritonitis (cecal perforation); assay: Cecal ligation and puncture (CLP) peritonitis/sepsis: survival; format: in vivo, Balb/C mice
Method: as §1
Cecal ligation and puncture (CLP). Cecal ligation and puncture (CLP) was performed as described by (Wichterman et al., J. Surg. Res. (1980) 29(2):189-201). Briefly, mice were anesthetized with 20 mg/ml xylazine intramuscularly at a dose of […], a midline incision was performed, and the cecum was isolated. A 6-0 prolene suture ligature was placed at a level 5.0 mm from the cecal tip away from the ileocecal valve. The ligated cecal stump was then punctured once with a 22-gauge needle, and stool extruded (1 mm) to ascertain patency of the puncture site. […] Mortality was recorded for up to 1 week after the procedure; survivors were followed for 3 weeks to ensure no late mortalities had occurred. […]

CCOC(=O)C(C)=O [ethyl pyruvate]
cytomix-induced hyperpermeability of Caco-2 monolayers (FD4 clearance) (Caco-2 human enterocytes): significantly decreased cytomix-induced hyperpermeability | clinical signs of morbidity ([1]; delayed treatment beginning 4 hours after LPS): reversed clinical signs of morbidity | survival ([1]; delayed treatment: 40 mg/kg i.p. at 4, 8, 12, 24 and 30 hours after LPS, vehicle 5/20): 17/20 | clinical manifestations of endotoxin morbidity ([1]; pretreatment 40 mg/kg 30 minutes before LPS 5 mg/kg i.p.): significantly prevented the clinical manifestations of endotoxin morbidity | survival ([1]; pretreatment: single dose 40 mg/kg i.p. 30 minutes before LPS 5 mg/kg i.p., vehicle 3/20): 20/20 | survival ([1]; pretreatment: single dose 40 mg/kg i.p. 30 minutes before LPS 5 mg/kg i.p., vehicle 3/20, listed as EP): conferred significant protection against lethality | survival ([2]; 40 mg/kg i.p. beginning 24 hours after onset of peritonitis, three weeks of monitoring, vehicle 5/17, P<0.005): 14/17 | protection against death ([2]; lower ethyl pyruvate doses, beginning 24 hours after onset of peritonitis): failed to confer significant protection against death
